Assay results reported in patent US8409560B2, “Solid dispersion formulations and methods of use thereof” (Zalicus Pharmaceuticals Ltd., priority 2011, dated 2013).
Like-named read-outs stand apart in the source and are kept apart here.

How the values were obtained:
[1] = log P of compound 1 (previously determined); type: physicochemical
Source text: Compound 1 has the following previously determined characteristics: […]

[2] = Hygroscopicity of compound 1 free base (previously determined); type: physicochemical; conditions: at 70% relative humidity (RH)
Source text: Compound 1 has the following previously determined characteristics:
(vii) hygroscopicity (for free base): 0.09% at 70% relative humidity (RH);

[3] = Fed-fasted pharmacokinetics and relative oral bioavailability of compound 1 HCl salt, micronized formulation (previously determined); conditions: human, in vivo
Source text: The fed-fasted pharmacokinetic data were collected using a “normal fat” meal consisting of toast with 1 pat of butter, a banana, 2% milk, apple juice, and Honey Nut Cheerios®, where the meal has about 501 calories with 99 calories from fat, 346 calories from carbohydrates, and 56 calories from protein; and using a “high fat” meal consisting of 2 eggs fried in butter, 2 strips of bacon, 2 slices of toast with butter, 4 ounces of hash brown potatoes and 8 ounces of whole milk, where the meal has about 1,000 calories with 500-600 calories from fat, 250 calories from carbohydrates, and 150 calories from protein.
The relative oral bioavailability of compound 1 (HCl salt) has been previously determined in various fed and fasted states in a micronized formulation. This micronized formulation included the following for a 100 mg dose in a #1 HPMC (white opaque) capsule: compound 1 HCl micronized (100.00 mg), Lactose Fast Flo® Fast Flo® composed of a spray-dried mixture of crystalline and amorphous lactose monohydrate (184.80 mg); sodium starch glycolate (19.20 mg); polysorbate 80 (14.40 mg); purified water (used as the granulating fluid and was removed during processing) (QS); and magnesium stearate (1.60 mg), where the resultant fill weight was 320.00 mg. […]

[4] = Caco-2 apparent intestinal permeability; type: in vitro ADME; conditions: for recovery at 60 min, 1 μM: read-out: Percent Recovery
Source text: (§1) Absorption of particular drugs may be limited by biological factors, such as reduced cellular permeability in the intestine. Many cellular mechanisms can influence permeability, such as reduced passive paracellular and transcellular transport or increased active export by the efflux transporter protein P-glycoprotein. Thus, the use of self-emulsifying carriers may not be beneficial for drugs having limited cellular permeability, where methods to increase the solubilization of a drug may not increase its permeability in the gastrointestinal tract. Experiments were conducted to assess the apparent intestinal permeability of compound 1 using a Caco-2 cell model.
(§2) Briefly, Caco-2 cells were used as an in vitro model for predicting absorption through the intestinal epithelium. Confluent monolayers of Caco-2 cells were grown on collagen-coated, microporous, polycarbonate membranes (12-well Costar Transwell® plates) that are placed between two chambers. The apical side of the monolayer was exposed to the buffer solution in a first chamber, but the basolateral side of the monolayer adhered to microporous membranes fluidically connected to a second chamber. The dosing solution was added to the first chamber for measurements in the apical-to-basolateral direction (A-to-B) and to the second chamber for measurements in the basolateral-to-apical direction (B-to-A). […] The permeability assay buffer was Hanks Balanced Salt Solution containing 10 mM HEPES and 15 mM glucose at a pH of 7.4. The buffer in the receiver chamber also contained 1% bovine serum albumin. The dosing solution concentration was 1 μM of compound 1 in the assay buffer. All donor chambers were first pre-incubated for five minutes with dosing solution to attempt to saturate any non-specific binding sites on the device with test compound. After five minutes, the solution was removed and replaced with fresh dosing solution, and time was recorded as 0. Cell monolayers were dosed on the apical side/first chamber (for A-to-B measurements) or basolateral side/second chamber (for B-to-A measurements) and incubated at 37° C. with 5% CO2 in a humidified incubator. At 30 and 60 minutes, aliquots were taken from the receiver chambers and replaced with fresh assay buffer. Samples were taken from the donor chamber at 0 and 60 minutes. Each experiment was performed in triplicate.
(§3) The apparent permeability (Papp), percent recovery, and efflux ratio were calculated as follows:
(§4) [formula] [formula] where
(§5) [formula] is the slope of the cumulative concentration in the receiver chamber as a function of time; Vr [cm^3] is the volume of the receiver chamber; Vd [cm^3] is the volume of the donor chamber; A [cm^2] is the area of the cell monolayer, which is estimated to be about 1.13 cm^2 for the 12-well Costar Transwell® plates; C0 [μM] is the measured concentration in the donor chamber at t=0 hours; CN [μM] is the nominal concentration of the dosing solution; Cr final [μM] is the cumulative concentration in the receiver chamber at the end of the incubation period; and Cd final [μM] is the cumulative concentration in the donor chamber at the end of the incubation period.
(§6) Thus, absorption of compound 1 in humans is not expected to be permeability limited.

Caco-2 cells = assay: Caco-2 apparent intestinal permeability; type: in vitro ADME; conditions: for Papp, replicates R1-R3: 1 μM
Source text: as §1, §2, §3, §4, §5, §6

logP [1]: 2.6 | hygroscopicity [2]: 0.09% | Tmax [3]: < 2 h | recovery at 60 min, 1 μM ([4]; Caco-2, pH 7.4, Cell-free): 54% | Papp A→B at 60 min, 1 μM ([4]; human, Caco-2, pH 7.4, A-to-B, read-out: Papp Avg.): 5.15 ×10⁻⁶ cm/s | Papp A→B at 60 min, 1 μM ([4]; human, Caco-2, pH 7.4, A-to-B, read-out: Papp, replicates R1-R3): 4.37 ×10⁻⁶ cm/s | recovery at 60 min, 1 μM ([4]; human, Caco-2, pH 7.4, A-to-B): 28% | Papp B→A at 60 min, 1 μM ([4]; human, Caco-2, pH 7.4, B-to-A, read-out: Papp Avg.): 4.32 ×10⁻⁶ cm/s | Papp B→A at 60 min, 1 μM ([4]; human, Caco-2, pH 7.4, B-to-A, read-out: Papp, replicates R1-R3): 5.04 ×10⁻⁶ cm/s | recovery at 60 min, 1 μM ([4]; human, Caco-2, pH 7.4, B-to-A): 37% | efflux ratio at 60 min, 1 μM ([4]; human, Caco-2, pH 7.4, read-out: Efflux Ratio (Papp(B-to-A)/Papp(A-to-B))): 0.8 | Papp, replicates R1-R3 (Caco-2 cells; A-to-B): 4.31 10^−6 cm/s | Papp, replicates R1-R3 (Caco-2 cells; B-to-A): 3.48 10^−6 cm/s | permeability classification (Caco-2 cells; Papp(A-to-B) more than 1.0×10^−6 cm/s): high permeability coefficient | efflux significance (Caco-2 cells; efflux ratio of less than 3): not considered significant
SMILES: O=C(CC(c1ccccc1)c1ccccc1)N1CCN(C(c2ccccc2)c2ccccc2)CC1 [Compound 1, 1-(4-benzhydrylpiperazin-1-yl)-3,3-diphenylpropan-1-one]
